Experimental data from patent publication US6468998B1, “Pyrrolidine compounds and medicinal utilization thereof” (Mitsubishi Pharma Corporation, priority 1998, dated 2002).
Structures can show the parent of a compound that is named as a salt.

melting point	Structure (SMILES)
214 to 215 °C	O=C(N[C@H]1CCN(CCc2ccc(C(F)(F)F)cc2)C1)C12CC3CC(CC(C3)C1)C2 (as salt: hydrochloride) (hydrate or solvate) [Example 5, (S)-N-(1-(2-(4-trifluoromethylphenyl)ethyl)pyrrolidin-3-yl)-1-adamantanecarboxamide]
140 to 142 °C	O=C(N[C@H]1CCN(CC2CCCc3ccccc32)C1)C12CC3CC(CC(C3)C1)C2 (stereo partly drawn) (as salt: hydrochloride) (hydrate or solvate) [Example 20, (S)-N-(1-((1,2,3,4-tetrahydronaphthalen-1-yl)methyl)pyrrolidin-3-yl)-1-adamantanecarboxamide]
278 to 279 °C	O=C(N[C@H]1CCN(C2Cc3ccccc3C2)C1)C12CC3CC(CC(C3)C1)C2 (as salt: hydrochloride) (hydrate or solvate) [Example 22, (S)-N-(1-(2,3-dihydroinden-2-yl)pyrrolidin-3-yl)-1-adamantanecarboxamide]
252 to 253 °C	CN(C(=O)C12CC3CC(CC(C3)C1)C2)[C@H]1CCN(CCc2cccc(F)c2)C1 (as salt: hydrochloride) (hydrate or solvate) [Example 65, (S)-N-methyl-N-(1-(2-(3-fluorophenyl)ethyl)pyrrolidin-3-yl)-1-adamantanecarboxamide]
264 to 265 °C	CN(C(=O)C12CC3CC(CC(C3)C1)C2)[C@@H]1CCN(CCc2ccc(F)cc2)C1 (as salt: hydrochloride) (hydrate or solvate) [Example 68, (R)-N-methyl-N-(1-(2-(4-fluorophenyl)ethyl)pyrrolidin-3-yl)-1-adamantanecarboxamide]
110 to 113 °C (dec.)	O=C(NC1CCN(CCc2ccc(F)cc2)C1)N1CC2CC3CC1C[C@@H](C3)C2 (stereo partly drawn) (as salt: hydrochloride) (hydrate or solvate) [Example 69, (S)-N-(1-(2-(4-fluorophenyl)ethyl)pyrrolidin-3-yl)-(4-azatricyclo[4.3.1.1(3,8)]undecan-4-yl)carboxamide]

Further lines, the molecule ahead of its results:

Structure (SMILES)	melting point
O=C(N[C@H]1CCN(CCc2cccc(C(F)(F)F)c2)C1)C12CC3CC(CC(C3)C1)C2 (as salt: hydrochloride) (hydrate or solvate) [Example 11, (S)-N-(1-(2-(3-trifluoromethylphenyl)ethyl)pyrrolidin-3-yl)-1-adamantanecarboxamide]	160 to 163 °C
O=C(N[C@H]1CCN(CCc2ccccc2C(F)(F)F)C1)C12CC3CC(CC(C3)C1)C2 (as salt: hydrochloride) (hydrate or solvate) [Example 12, (S)-N-(1-(2-(2-trifluoromethylphenyl)ethyl)pyrrolidin-3-yl)-1-adamantanecarboxamide]	127 to 128 °C
O=C(N[C@H]1CCN(CC2Cc3ccccc3C2)C1)C12CC3CC(CC(C3)C1)C2 (as salt: hydrochloride) (hydrate or solvate) [Example 18, (S)-N-(1-((2,3-dihydroinden-2-yl)methyl)pyrrolidin-3-yl)-1-adamantanecarboxamide]	241 to 243 °C
O=C(N[C@H]1CCN(CCc2ccccc2)C1)NC12CC3CC(CC(C3)C1)C2 (as salt: hydrochloride) (hydrate or solvate) [Example 51, (S)-1-(1-adamantyl)-3-(1-(2-phenylethyl)pyrrolidin-3-yl)urea]	201 to 202 °C
CN(C(=O)C12CC3CC(CC(C3)C1)C2)[C@H]1CCN(CCc2ccc(F)cc2)C1 (as salt: hydrochloride) (hydrate or solvate) [Example 56, (S)-N-methyl-N-(1-(2-(4-fluorophenyl)ethyl)pyrrolidin-3-yl)-1-adamantanecarboxamide]	253 to 254 °C
O=C(N[C@H]1CCN(C[C@H](O)c2ccccc2)C1)C12CC3CC(CC(C3)C1)C2 (as salt: hydrochloride) (hydrate or solvate) [Example 70, (S)-N-(1-((R)-2-hydroxy-2-phenylethyl)pyrrolidin-3-yl)-1-adamantanecarboxamide]	139 to 141 °C
